As usually defined, the solubility (kinetic) is solubility judged after dilution from a stock solution rather than from solid.

≈ marks a conversion by molar mass, not a printed value. Some results are limits rather than exact numbers.

The text below walks through data of PubChem BioAssay AID1996.

For this series the following is noted: buffer; pH 7.4; 200.0 µM.
As to `COC(=O)c1c(C(=O)OC)c(-c2ccc(F)cc2)n2c1CS(=O)C2` (stereo not drawn), the kinetic solubility was over 52.7 µg/mL.

`Cc1ccc(C(=O)NCCCNc2ccccc2[N+](=O)[O-])cc1` returned a solubility (kinetic) of 3.4 µg/mL (≈ 10.9 µM). `CCC(C)NC(=O)C1CCN(S(=O)(=O)N2CCOCC2)CC1` (stereo not drawn) showed a solubility (kinetic) of over 50 µg/mL.

For the compound `COc1cc(C(=O)OCC(=O)NC2CC2)ccc1OCCC(C)C`, the solubility (kinetic) is 6.8 µg/mL (≈ 20.3 µM). In the case of `CC(NC(=O)COC(=O)C12CC3CC(CC(O)(C3)C1)C2)c1ccccc1` (stereo not drawn) it was over 53.6 µg/mL; in that of `O=C1CN(S(=O)(=O)c2ccc([N+](=O)[O-])cc2)CC(=O)N1`, over 44.9 µg/mL; in that of `Cc1cc(=O)n2c(n1)SCOC2`, over 27.6 µg/mL. In turn, `CCOC(=O)C1CCCN(C(=O)c2ccc3ncsc3c2)C1` (stereo not drawn) yielded a solubility (kinetic) of over 47.8 µg/mL. The result for `COc1cccc2[nH]c(C(=O)NCCc3ccccc3)cc12` reads 1 µg/mL (≈ 3.4 µM); that for `COc1ccccc1N1C(=O)C(Cl)=C(N2CCCC2)C1=O`, 9.4 µg/mL (≈ 30.6 µM); that for `CCOC(=O)c1nc2ccccc2c(=O)[nH]1`, over 32.7 µg/mL. The result for `O=[N+]([O-])c1ccc(NS(=O)(=O)N2CCOCC2)cc1` reads over 43.1 µg/mL; that for `Br.Cc1ccc(C(=O)Cn2c(=N)n(N)c3ccccc32)cc1`, over 54.2 µg/mL. In the case of `COCCNC(=S)N1CCC(NC(=O)c2ccco2)CC1` it was over 46.7 µg/mL. With `COc1ccc(C(=O)O/N=C(\N)c2ccccn2)cc1[N+](=O)[O-]`, the solubility (kinetic) is 2.6 µg/mL (≈ 8.22 µM). The result for `O=C([O-])c1ncc(Cl)c(Cl)c1Cl.[NH4+]` reads over 36.5 µg/mL.

For the compound `COc1ccc(CCNC(=O)COC(=O)C2CC2C)cc1` (stereo not drawn), the solubility (kinetic) is over 43.7 µg/mL. The result for `COc1cccc(C(=O)NN2C(=S)N(c3ccccc3)C(=O)C2CC(N)=O)c1` (stereo not drawn) reads over 59.8 µg/mL; that for `Cc1ccc2nc(-c3ccccn3)[nH]c2c1.Cl`, over 36.9 µg/mL; that for `C/C(=N\OCc1ccc(C#N)cc1)c1ccccc1`, under 0.3 µg/mL. On to `Cc1ccc(OCCn2cnc(Cl)c2Cl)cc1`, for which the kinetic solubility was 31.7 µg/mL (≈ 117 µM). As to `COc1cccc(C(=O)COc2ccc(NC(=O)c3ccccc3)cc2)c1`, the solubility (kinetic) is under 0.8 µg/mL. The compound `Cc1ccc2oc(=O)c(/C=C(\O)c3ccccc3)nc2c1` had a solubility (kinetic) of 36.8 µg/mL (≈ 132 µM). `Cc1ccsc1-c1nc(CN2CCN(C)C(=O)[C@@H]2C)c(C)o1` yielded a kinetic solubility of 40 µg/mL (≈ 125 µM). The result for `CC(C)Oc1ccc(Cn2c(=O)oc3ccccc32)cc1` reads 0.7 µg/mL (≈ 2.47 µM). In the case of `CC(NC(=O)c1ccco1)C(=O)OC(C)C(=O)NCc1ccccc1` (stereo not drawn) it was 46.3 µg/mL (≈ 134 µM); in that of `Cc1ccccc1NC(=S)NC12CN3CN(CN(C3)C1)C2`, over 45.5 µg/mL; in that of `Cc1cc(NC(=O)COC(=O)c2ccccc2[N+](=O)[O-])no1`, 21.3 µg/mL (≈ 69.8 µM).

For the compound `CC(C)N(Cc1cc2ccccc2[nH]c1=O)C(=O)c1cccc([N+](=O)[O-])c1`, the kinetic solubility was determined as 3.4 µg/mL (≈ 9.31 µM). On to `Cc1cc(NC(=O)c2c(C)noc2C)no1`, for which the kinetic solubility was over 33.2 µg/mL. In turn, `N#C/C(=C\c1ccncc1)c1nc2ccccc2[nH]1` returned a solubility (kinetic) of 24.8 µg/mL (≈ 101 µM). Turning to `Cc1cc(C)nc(SCc2cn3ccccc3n2)n1`, the solubility (kinetic) was over 40.6 µg/mL. The result for `Cc1cccc(N2CCN(C(=O)c3cccs3)CC2)c1C` reads 23.8 µg/mL (≈ 79.2 µM); that for `O=C(COC(=O)COc1ccc(Br)cc1)NCC1CCCO1` (stereo not drawn), over 55.8 µg/mL. For the compound `O=C1CC(Sc2ccc(Cl)cc2)C(=O)N1c1ccc2c(c1)OCCO2` (stereo not drawn), the solubility (kinetic) is 13 µg/mL (≈ 34.6 µM). In the case of `O=S(=O)(Nc1ccccc1N1CCCCC1)c1ccc(F)cc1` it was 2.5 µg/mL (≈ 7.48 µM).

In turn, `COc1ccc(C(=O)C2CCCN(C(=O)C3=CCCC3)C2)cc1OC` (stereo not drawn) gave a kinetic solubility of over 51.5 µg/mL. In the case of `Cc1ccc(C)c(Cn2cnc3c(oc4ccccc43)c2=O)c1` it was under 0.3 µg/mL; in that of `COc1ccc(CC(=O)OCN2C(=O)c3ccccc3C2=O)cc1OC`, over 53.3 µg/mL. In the case of `O=C(NC1CCCCC1)c1cc(-c2ccccc2O)on1` it was 0.6 µg/mL (≈ 2.1 µM); in that of `COc1cccc(NC(=O)[C@@H]2CCC(=O)N2C2OC(=O)c3ccccc32)c1` (stereo partly drawn), over 55 µg/mL; in that of `O=C1CC(N2CCN(c3ccc(F)cc3)CC2)C(=O)N1Cc1ccccc1` (stereo not drawn), 48.2 µg/mL (≈ 131 µM).

`O=C(Nc1ccc2[nH]ccc2c1)c1ccccc1` returned a kinetic solubility of 31.9 µg/mL (≈ 135 µM). In the case of `CCc1cccc(C)c1NC(=O)N(C)C1CCCCC1` it was 35.6 µg/mL (≈ 130 µM). The result for `O=C(O)CCNS(=O)(=O)c1ccc2c(c1)CCCC2` reads over 42.5 µg/mL; that for `Cc1cc(C)cc(NC(=O)CC2Oc3ccc(C)cc3NC2=O)c1` (stereo not drawn), 1.6 µg/mL (≈ 4.93 µM); that for `COc1ccc(-c2noc(CN(C)C(=O)c3ccco3)n2)cc1`, 42.7 µg/mL (≈ 136 µM).

`O=C(O)C(=O)O.c1ccc(CNC23CC4CC(CC(C4)C2)C3)nc1` returned a kinetic solubility of 45.8 µg/mL. Consider `O=C(O)c1nn(-c2cccc(C(F)(F)F)c2)ccc1=O`, for which the solubility (kinetic) is over 42.6 µg/mL. `COc1cccc(/C=C/C(=O)N2CCN(c3ccccn3)CC2)c1` displayed a kinetic solubility of over 48.5 µg/mL.

With `COc1nc(NCCO)nc(Nc2cc(Cl)ccc2OC)n1`, the solubility (kinetic) was determined as 2.5 µg/mL (≈ 7.67 µM). Take `Fc1ccccc1-c1nc(NCc2ccccc2)c2ccccc2n1`: the kinetic solubility came out at 3.1 µg/mL (≈ 9.41 µM). In the case of `COc1ccc(NC(=O)Nc2ccncc2)c(OC)c1` it was over 41 µg/mL. As to `O=C(COC(=O)CCc1ccccc1)NCc1ccccc1`, the kinetic solubility was over 44.6 µg/mL. `COc1ccc(Cl)cc1NC(=O)CN(C)CC(=O)NCc1ccc(F)cc1` registered a kinetic solubility of over 59.1 µg/mL. On to `Cc1cc(NC(=O)Cc2ccccc2[N+](=O)[O-])no1`, for which the kinetic solubility worked out at 16.6 µg/mL (≈ 63.5 µM). The result for `O=C(CCN1C(=O)C2CC=CCC2C1=O)Nc1nccs1` (stereo not drawn) reads over 45.8 µg/mL; that for `Cc1ccc(CN2CC(C(=O)Nc3ccc(C)cn3)CC2=O)cc1` (stereo not drawn), over 48.5 µg/mL. The compound `C=CCOc1cccc(CNCc2ccncc2)c1` registered a solubility (kinetic) of 28 µg/mL (≈ 110 µM). Turning to `CN(C)c1ncnc(N(C)C)c1[N+](=O)[O-]`, the solubility (kinetic) is over 31.7 µg/mL. In the case of `N#Cc1ccc(COC(=O)c2ccc3c(c2)OCO3)cc1` it was 2.3 µg/mL (≈ 8.18 µM). In the case of `COc1ccc(CCNC(=O)c2cc3cc(F)ccc3nc2C)cc1OC` it was 2.3 µg/mL (≈ 6.24 µM); in that of `COc1cccc(-c2nc(-c3ccccc3)c(-c3ccccc3)[nH]2)c1OCC(=O)O`, over 60.1 µg/mL; in that of `CCOC(=O)c1sc(NC(=O)Cc2ccccc2OC)nc1C`, 14.7 µg/mL (≈ 44 µM). For the compound `Cc1cccc(Nc2nc(-c3ccccc3)cs2)n1`, the kinetic solubility turned out to be 0.3 µg/mL (≈ 1.12 µM). `CCOc1cc(C(=S)N2CCCC2)ccc1O` yielded a solubility (kinetic) of over 37.7 µg/mL. In the case of `Cc1ccc(OCC(=O)NCC2CCCO2)c(C)c1` (stereo not drawn) it was over 39.5 µg/mL. As for `COc1ccc(Cl)cc1N1C(=O)c2cccnc2C1=O`, the solubility (kinetic) is over 43.3 µg/mL. The compound `O=C(N/C(=C\c1ccccc1)C(=O)N1CCOCC1)c1ccco1` showed a solubility (kinetic) of over 49 µg/mL. In the case of `Cl.O=C(CCl)N1CCN(CC(=O)N2CCCC2)CC1` it was over 46.5 µg/mL. As to `CCN1CCN(C(=O)c2cc3cc(Cl)ccc3[nH]2)CC1`, the solubility (kinetic) is over 43.8 µg/mL. `COc1ccc(CCn2c(C)cc(C(=O)COC(=O)c3cnccn3)c2C)cc1` gave a kinetic solubility of 37.3 µg/mL (≈ 94.8 µM). The result for `O=C(CN1C(=O)c2ccccc2S1(=O)=O)c1ccc(F)cc1` reads 9.7 µg/mL (≈ 30.4 µM). Turning to `O=C(Nc1cc(C(F)(F)F)ccc1-n1cncn1)C1CC1`, the solubility (kinetic) is over 44.4 µg/mL. `CCN1CCN(c2nc3c(C)cccn3c(=O)c2C=C(C#N)C#N)CC1` registered a kinetic solubility of 51.1 µg/mL (≈ 147 µM).

`NC(=O)CSc1nc(C2CC2)nc2sc3c(c12)CCCC3`: the kinetic solubility was under 0.2 µg/mL. As for `Nc1cc(N)nc(SCCc2ccccc2)n1`, the solubility (kinetic) was over 36.9 µg/mL. The result for `CCc1ccc(N(C(C)=O)c2nc(CCl)cs2)cc1` reads over 44.2 µg/mL. In the case of `CCCCCCCNC(=O)c1cc(-c2ccncc2)nc2ccccc12` it was 0.8 µg/mL (≈ 2.3 µM); in that of `CC(=O)Nc1ccc(/C=C/c2nc3ccccc3o2)cc1`, 8.7 µg/mL (≈ 31.3 µM). The result for `COc1ccc(CC(=O)N2CCc3ccccc3C2)cc1` reads 39.6 µg/mL (≈ 141 µM). `Cc1cc(Br)ccc1NC(=O)CSCc1c(C)noc1C` gave a kinetic solubility of 30.1 µg/mL (≈ 81.5 µM). The result for `CC(C)Nc1nc(N)c(C(=O)C23CC4CC(CC(C4)C2)C3)s1` reads 0.3 µg/mL (≈ 0.939 µM). Regarding `Cc1nc2ccccc2n1CCc1ccccc1`, the solubility (kinetic) stood at 30.1 µg/mL (≈ 127 µM). For `CCOc1ccccc1NC(=O)c1cc(=O)c2ccccc2o1`, the kinetic solubility is under 0.7 µg/mL. In the case of `O=C(CSc1nc(O)c(Cc2ccccc2)c(=O)[nH]1)c1ccccc1` it was over 52.9 µg/mL; in that of `CCNC(=O)CN1C(=O)NC2(CCOc3ccccc32)C1=O` (stereo not drawn), over 45.5 µg/mL; in that of `CCNc1nc(Cl)nc(NC2CCCCC2)n1`, 18.4 µg/mL (≈ 71.9 µM). The result for `O=C(Nc1cccc(F)c1)Nc1ccc2c(c1)OCO2` reads 4.4 µg/mL (≈ 16 µM); that for `O=C(CN1C(=O)COc2ccccc21)N1CCN(C2CCCCC2)CC1`, 49.2 µg/mL (≈ 138 µM). With `CCc1cccc(CC)c1C(OC(C)=O)c1cccnc1` (stereo not drawn), the kinetic solubility is 30.7 µg/mL (≈ 108 µM). In the case of `Cc1cc(C)n2nc(SC(C)C(=O)N3CC(C)OC(C)C3)nc2n1` (stereo not drawn) it was over 52.4 µg/mL; in that of `COc1cc(CC(=O)N2CCN(C(=O)C3CCCO3)CC2)cc(OC)c1OC` (stereo not drawn), over 58.9 µg/mL. The result for `O=C(Cc1cccs1)NCc1ccccc1Br` reads 24.8 µg/mL (≈ 79.9 µM).

Compound `Cc1ccc2c(c1)sc1ncc(NC(=O)c3ccc(F)cc3)c(=O)n12` gave a kinetic solubility of under 0.3 µg/mL. The result for `CCOc1ccccc1N1CC(C(=O)N(CC)C2CCS(=O)(=O)C2)CC1=O` (stereo not drawn) reads over 59.2 µg/mL. The compound `Cc1cc2c(NC3CCCCC3)ncnc2s1.Cl` displayed a kinetic solubility of 15 µg/mL.

The compound `CC(Cc1c[nH]c2ccccc12)C(=O)NCc1ccco1` (stereo not drawn) returned a solubility (kinetic) of over 42.4 µg/mL. In the case of `Fc1ccc(CN2CCCN(C(=S)Nc3ccc(F)cc3)CC2)cc1` it was over 54.2 µg/mL; in that of `CCC(=O)N=c1ccn(C2=Nc3ccccc3NC2=C(C#N)C#N)cc1`, 30.9 µg/mL (≈ 90.3 µM).

In turn, `O=C(Nc1cc([N+](=O)[O-])ccc1F)C1CCN(S(=O)(=O)c2cccs2)CC1` had a solubility (kinetic) of 4.4 µg/mL (≈ 10.6 µM). In the case of `CCOC(=O)c1cc(C#N)c(SC)nc1C` it was 0.9 µg/mL (≈ 3.81 µM). The result for `CCC(C)[C@H](NC(=O)Nc1ccc(C)cc1C)C(=O)O` (stereo partly drawn) reads 31.8 µg/mL (≈ 114 µM).
